The values below are quoted from earlier work in patent publication US20110250132A1, “LIPOIC ACID METABOLITE: USEFUL FOR DRUG CARRIER, NANOPARTICLE CONJUGATE, IMAGING AND HYPERTHERMIA THERAPY” (priority 2010, published 2011).

SMILES strings stand for the structures.

For data set [1] the following is noted: accumulates in all neuronal cell types.
Another data set deals with cataracts. The following applies: rats.
Data set [2] relates to insulin-resistant rat skeletal muscle.
The conditions of data set [3]: reduced form with two —SH groups.

For `O=C(O)CCCCC1CCSS1` (stereo not drawn) [Alpha-lipoic acid], the preventing iron accumulation result in the data set on lens epithelial cells is listed as “beneficial effects”. The blood-brain barrier crossing entry in data set [1] is reported as “readily crosses the blood-brain barrier”.

With `O=C(O)CCCC[C@@H]1CCSS1` [R-alpha-lipoic acid], the preventing cataracts result in the data set with cataracts was “more effective than racemic alpha-lipoic acid and S-alpha-lipoic acid”. Also, the “enhancing insulin-stimulated glucose transport and metabolism” value in data set [2] is reported as “more effective than S-alpha-lipoic acid”. Regarding `O=C(O)CCCC[C@@H](S)CCS` (racemic) [DHLA, dihydrolipoic acid], the oxidation potential in data set [3] is −0.29 v.
